Laboratory results from patent US9403850B2, “Beta-lactamase inhibitors” (priority 2013, dated 2016).
pIC50: −log10 of the molar value.

Assays:
[1] = test system: S. aureus MSSA-7 producing penicillinase PC-1; experiment: Broth microdilution MIC assay, partner piperacillin; assay type: cell-based; details: Staphylococcus aureus, fixed piperacillin 4 μg/mL, read-out: MIC of Exemplary Compounds in presence of fixed β-lactams, Fixed Pip, S. aureus MSSA-7 PC-1
[2] = test system: K. pneumoniae 156319 expressing KPC-3; experiment: Broth microdilution MIC assay, partner meropenem; assay type: cell-based; details: Klebsiella pneumoniae, read-out: MIC of Exemplary Compounds in presence of fixed β-lactams, Fixed Mero, K.P. 156319 KPC-3
SHV-5 = target: T1, SHV-5 (Klebsiella pneumoniae, UniProt P0A3M1); experiment: β-Lactamase enzyme inhibition assay, SHV-5 (cefotaxime substrate); assay type: biochemical; details: 15 min preincubation at 37° C., read-out: IC50, Class A SHV-5
T1 construct: expressed as native untagged proteins; made in house; host or cells: E. coli BL21(DE3)
T1 sequence (P0A3M1 22-286): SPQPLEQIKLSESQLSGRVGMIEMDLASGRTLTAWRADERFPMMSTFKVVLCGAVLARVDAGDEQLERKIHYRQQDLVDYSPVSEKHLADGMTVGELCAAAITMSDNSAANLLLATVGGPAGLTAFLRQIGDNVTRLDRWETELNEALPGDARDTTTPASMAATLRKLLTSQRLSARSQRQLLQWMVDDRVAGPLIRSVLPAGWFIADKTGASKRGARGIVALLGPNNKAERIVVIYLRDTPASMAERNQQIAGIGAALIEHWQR
Protocol: (§1) For SHV-5, Kpc-2, p99AmpC and OXA-1 β-lactamases, E. coli BL21(DE3) bacterial cells carrying expression plasmids (expressed as native untagged proteins) for the individual β-lactamases were grown in 1 L of Superbroth (Teknova Inc. Hollister, CA) supplemented with 100 μg/ml kanamycin selection and 1×5052 (0.5% glycerol, 0.05% glucose and 0.2% α-lactose) at 35° C. for 18-20 hours. Cells were harvested by centrifugation (4,000×g, 4° C., 20 min), resuspended in 50 ml of 10 mM HEPES pH 7.5 (1/20 of the initial volume). The cells were lysed by sonication (5 pulses of 45 seconds) at 45 W on ice. The lysates were clarified by centrifugation at 10,000×g for 40 minutes at 4° C. […] Active fractions were pooled concentrated, quantitated by BCA protein determination (Thermo Scientific, Rockford, Ill.), dialyzed into PBS and frozen at −80° C. in 20% glycerol until use.
(§2) An equal volume of diluted enzyme stock was added, and the plates were incubated at 37° C. for 15 min. […] Absorbance at 486 nm was immediately monitored for 10 min using a Biotek Powerwave XS2 microplate spectrophotometer using the GEN5 softweare package (Biotek Instruments, Winooski Vt.). […] Maximum rates of hydrolysis were compared to those in control wells (without inhibitors), and percentages of enzyme inhibition were calculated for each concentration of inhibitor. […]

[3] = test system: K. pneumoniae A-1797 expressing KPC-2 and VIM-4; experiment: Broth microdilution MIC assay, partner meropenem; assay type: cell-based; details: Klebsiella pneumoniae, read-out: MIC of Exemplary Compounds in presence of fixed β-lactams, Fixed Mero, K.P. A-1797 KPC-2 VIM-4
KPC-2 = target: T2, KPC-2 (Klebsiella pneumoniae, UniProt Q9F663); experiment: β-Lactamase enzyme inhibition assay, KPC-2 (imipenem substrate); assay type: biochemical; details: 15 min preincubation at 37° C., read-out: IC50, Class A KPC-2
T2 construct: expressed as native untagged proteins; made in house; host or cells: E. coli BL21(DE3)
T2 sequence (Q9F663 25-293 limits assumed): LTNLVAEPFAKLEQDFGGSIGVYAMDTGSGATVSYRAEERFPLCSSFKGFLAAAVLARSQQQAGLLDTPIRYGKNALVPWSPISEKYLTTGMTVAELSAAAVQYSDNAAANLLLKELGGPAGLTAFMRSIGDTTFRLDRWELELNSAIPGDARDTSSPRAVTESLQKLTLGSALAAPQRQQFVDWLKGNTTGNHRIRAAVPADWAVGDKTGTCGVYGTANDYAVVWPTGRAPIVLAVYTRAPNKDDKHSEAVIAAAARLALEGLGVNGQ
Protocol: as §1, §2

OXA-1 = target: T3, OXA-1 (Escherichia coli, UniProt P13661); experiment: β-Lactamase enzyme inhibition assay, OXA-1 (nitrocefin substrate); assay type: biochemical; details: nitrocefin substrate 100 μM, 15 min preincubation at 37° C.; read-out: IC50, Class D OXA-1
T3 construct: expressed as native untagged proteins; made in house; host or cells: E. coli BL21(DE3)
T3 sequence (P13661 26-276): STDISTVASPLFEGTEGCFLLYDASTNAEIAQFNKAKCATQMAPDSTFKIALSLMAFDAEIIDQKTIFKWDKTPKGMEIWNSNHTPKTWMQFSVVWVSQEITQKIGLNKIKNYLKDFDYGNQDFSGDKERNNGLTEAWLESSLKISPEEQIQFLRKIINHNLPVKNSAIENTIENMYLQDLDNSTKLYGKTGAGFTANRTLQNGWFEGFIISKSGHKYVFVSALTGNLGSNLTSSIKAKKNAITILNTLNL
Protocol: as §1, §2

[4] = test system: E. coli ESBL4 expressing CTX-M-15; experiment: Broth microdilution MIC assay, partner ceftazidime;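 further: ceftazidime held fixed at 4 µg/mL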; assay type: cell-based; details: Escherichia coli, read-out: MIC of Exemplary Compounds in presence of fixed β-lactams, Fixed CAZ, E. coli ESBL4 CTX-M-15
[5] = test system: E. cloacae 144200 expressing Class C P99 AmpC; experiment: Broth microdilution MIC assay, partner ceftazidime;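 further: ceftazidime held fixed at 4 µg/mL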; assay type: cell-based; details: Enterobacter cloacae, read-out: MIC of Exemplary Compounds in presence of fixed β-lactams, Fixed CAZ, E. cl. 144200 p99 AmpC
[6] = test system: P. aeruginosa Ps296 expressing VIM-2; experiment: Broth microdilution MIC assay, partner meropenem; assay type: cell-based; details: Pseudomonas aeruginosa, read-out: MIC of Exemplary Compounds in presence of fixed β-lactams, Fixed Mero, P. aerug. Ps296 VIM-2
p99 AmpC = target: T4, p99 AmpC (Enterobacter cloacae, UniProt P05364); experiment: β-Lactamase enzyme inhibition assay, p99 AmpC (nitrocefin substrate); assay type: biochemical; details: nitrocefin substrate 100 μM, 15 min preincubation at 37° C.; read-out: IC50, Class C AmpC
T4 construct: expressed as native untagged proteins; made in house; host or cells: E. coli BL21(DE3)
T4 sequence (P05364 21-381): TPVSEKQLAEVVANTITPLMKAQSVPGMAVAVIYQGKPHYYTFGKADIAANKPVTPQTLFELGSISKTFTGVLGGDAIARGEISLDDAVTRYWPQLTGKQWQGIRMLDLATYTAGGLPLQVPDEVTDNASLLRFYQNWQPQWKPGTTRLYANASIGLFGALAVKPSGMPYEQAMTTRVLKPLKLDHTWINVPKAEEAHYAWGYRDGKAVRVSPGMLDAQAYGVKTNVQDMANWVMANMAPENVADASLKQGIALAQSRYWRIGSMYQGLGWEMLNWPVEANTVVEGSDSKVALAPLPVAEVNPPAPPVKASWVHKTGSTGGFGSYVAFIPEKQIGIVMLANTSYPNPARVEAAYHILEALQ
Protocol: as §1, §2

VIM-2 = target: T5, VIM-2 (Escherichia coli, UniProt Q5U7L7); experiment: β-Lactamase enzyme inhibition assay, VIM-2 (nitrocefin substrate); assay type: biochemical; details: nitrocefin substrate 100 μM, 15 min preincubation at 37° C.; read-out: IC50, Class B VIM-2
T5 construct: made in house; host or cells: E. coli BL21(DE3)
In short: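 Purified VIM-2 (Q sepharose anion exchange, HEPES pH 7.5) preincubated with inhibitor 15 min at 37° C. Nitrocefin added at 100 μM final; absorbance at 486 nm monitored 10 min. IC50 from inhibition of initial hydrolysis rate versus inhibitor-free controls.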

O=C(Cc1ccc2c(c1)CNC2)N[C@H]1Cc2cccc(C(=O)O)c2OB1O [Example 36, (3R)-2-hydroxy-3-[(2-isoindolin-5-ylacetyl)amino]-3,4-dihydro-1,2-benzoxaborinine-8-carboxylic acid]
MIC [1]: < 4 µg/mL
MIC [2]: < 4 µg/mL
pIC50 (SHV-5): > 7.00
MIC [3]: > 32 µg/mL
pIC50 (KPC-2): > 7.00
pIC50 (OXA-1): > 7.00
MIC [4]: < 4 µg/mL
MIC [5]: < 4 µg/mL
MIC [6]: < 4 µg/mL
pIC50 (p99 AmpC): > 7.00
pIC50 (VIM-2): 6.00 to 7.00

O=C(O)c1ccccc1C(=O)N[C@H]1Cc2cccc(C(=O)O)c2OB1O [Example 53, (R)-3-(2-carboxybenzamido)-2-hydroxy-3,4-dihydro-2H-benzo[e][1,2]oxaborinine-8-carboxylic acid]
MIC [1]: < 4 µg/mL
MIC [2]: < 4 µg/mL
MIC [3]: 8 to 32 µg/mL
MIC [4]: < 4 µg/mL
MIC [5]: < 4 µg/mL
MIC [6]: > 32 µg/mL
pIC50 (VIM-2): 5.00 to 6.00

NCCNC(=O)c1ccccc1C(=O)N[C@H]1Cc2cccc(C(=O)O)c2OB1O [Example 54, (R)-3-(2-(2-aminoethylcarbamoyl)benzamido)-2-hydroxy-3,4-dihydro-2H-benzo[e][1,2]oxaborinine-8-carboxylic acid]
MIC [1]: > 32 µg/mL
MIC [2]: 8 to 32 µg/mL
MIC [3]: > 32 µg/mL
MIC [4]: < 4 µg/mL
MIC [5]: < 4 µg/mL
MIC [6]: < 4 µg/mL
pIC50 (VIM-2): 5.00 to 6.00

CC(C)NCc1cc(C(=O)N[C@H]2Cc3cccc(C(=O)O)c3OB2O)ccc1CN [Example 55, (R)-3-(4-(aminomethyl)-3-((isopropylamino)methyl)benzamido)-2-hydroxy-3,4-dihydro-2H-benzo[e][1,2]oxaborinine-8-carboxylic acid]
MIC [1]: > 32 µg/mL
MIC [2]: 8 to 32 µg/mL
MIC [3]: > 32 µg/mL
MIC [4]: < 4 µg/mL
MIC [5]: < 4 µg/mL
MIC [6]: < 4 µg/mL
pIC50 (VIM-2): 6.00 to 7.00

CC(C)NCc1ccc(C(=O)N[C@H]2Cc3cccc(C(=O)O)c3OB2O)cc1CNC(C)C [Example 56, (R)-3-(3,4-bis((isopropylamino)methyl)benzamido)-2-hydroxy-3,4-dihydro-2H-benzo[e][1,2]oxaborinine-8-carboxylic acid]
MIC [1]: < 4 µg/mL
MIC [2]: < 4 µg/mL
MIC [3]: < 4 µg/mL
MIC [4]: < 4 µg/mL
MIC [5]: < 4 µg/mL
MIC [6]: < 4 µg/mL
pIC50 (VIM-2): 6.00 to 7.00

NCCNc1ccc(CC(=O)N[C@H]2Cc3cccc(C(=O)O)c3OB2O)cc1 [Example 57, (R)-3-(2-(4-(2-aminoethylamino)phenyl)acetamido)-2-hydroxy-3,4-dihydro-2H-benzo[e][1,2]oxaborinine-8-carboxylic acid]
MIC [1]: < 4 µg/mL
MIC [2]: 8 to 32 µg/mL
MIC [3]: < 4 µg/mL
MIC [4]: < 4 µg/mL
MIC [5]: < 4 µg/mL
MIC [6]: < 4 µg/mL
pIC50 (VIM-2): 5.00 to 6.00

NCCOc1ccc(CC(=O)N[C@H]2Cc3cccc(C(=O)O)c3OB2O)cc1OCCN [Example 58, (R)-3-(2-(3,4-bis(2-aminoethoxy)phenyl)acetamido)-2-hydroxy-3,4-dihydro-2H-benzo[e][1,2]oxaborinine-8-carboxylic acid]
MIC [1]: < 4 µg/mL
MIC [2]: < 4 µg/mL
MIC [3]: 8 to 32 µg/mL
MIC [4]: < 4 µg/mL
MIC [5]: < 4 µg/mL
MIC [6]: < 4 µg/mL
pIC50 (VIM-2): 6.00 to 7.00

NCCOc1ccc(CC(=O)N[C@H]2Cc3cccc(C(=O)O)c3OB2O)cc1O [Example 59, (R)-3-(2-(4-(2-aminoethoxy)-3-hydroxyphenyl)acetamido)-2-hydroxy-3,4-dihydro-2H-benzo[e][1,2]oxaborinine-8-carboxylic acid]
MIC [1]: < 4 µg/mL
MIC [2]: < 4 µg/mL
MIC [3]: 8 to 32 µg/mL
MIC [4]: < 4 µg/mL
MIC [5]: < 4 µg/mL
MIC [6]: < 4 µg/mL
pIC50 (VIM-2): 6.00 to 7.00

NCCNc1ccc(CC(=O)N[C@H]2Cc3cccc(C(=O)O)c3OB2O)cn1 [Example 60, (R)-3-(2-(6-(2-aminoethylamino)pyridin-3-yl)acetamido)-2-hydroxy-3,4-dihydro-2H-benzo[e][1,2]oxaborinine-8-carboxylic acid]
MIC [1]: < 4 µg/mL
MIC [2]: < 4 µg/mL
MIC [3]: 8 to 32 µg/mL
MIC [4]: < 4 µg/mL
MIC [5]: < 4 µg/mL
MIC [6]: < 4 µg/mL
pIC50 (VIM-2): 6.00 to 7.00

NCCNc1ccc(CC(=O)N[C@H]2Cc3cccc(C(=O)O)c3OB2O)c[n+]1[O-] [Example 61, (R)-2-(2-aminoethylamino)-5-(2-(8-carboxy-2-hydroxy-3,4-dihydro-2H-benzo[e][1,2]oxaborinin-3-ylamino)-2-oxoethyl)pyridine 1-oxide]
MIC [1]: < 4 µg/mL
MIC [2]: < 4 µg/mL
MIC [3]: < 4 µg/mL
MIC [4]: < 4 µg/mL
MIC [5]: < 4 µg/mL
MIC [6]: < 4 µg/mL
pIC50 (VIM-2): 6.00 to 7.00

NCc1cc(C(=O)N[C@H]2Cc3cccc(C(=O)O)c3OB2O)cnc1CN [Example 62, (R)-3-(5,6-bis(aminomethyl)nicotinamido)-2-hydroxy-3,4-dihydro-2H-benzo[e][1,2]oxaborinine-8-carboxylic acid]
MIC [1]: < 4 µg/mL
MIC [2]: < 4 µg/mL
MIC [3]: < 4 µg/mL
MIC [4]: < 4 µg/mL
MIC [5]: < 4 µg/mL
MIC [6]: < 4 µg/mL
pIC50 (VIM-2): 6.00 to 7.00

NCc1cnc(C(=O)N[C@H]2Cc3cccc(C(=O)O)c3OB2O)cc1CN [Example 63]
MIC [1]: < 4 µg/mL
MIC [2]: < 4 µg/mL
MIC [3]: < 4 µg/mL
MIC [4]: < 4 µg/mL
MIC [5]: < 4 µg/mL
MIC [6]: < 4 µg/mL
pIC50 (VIM-2): > 7.00
